# Like-named read-outs stand apart in the source and are kept apart here.
# Assays:
# [1] = test system: pooled HLMs (CYPs); test: CYP-mediated biotransformation of CPF in pooled HLMs (literature kinetic data); assay type: in vitro ADME, human; conditions: bioactivation of CPF
# From the text: (§1) As mentioned before, the in vitro apparent kinetic parameters (Vmax and Km) for pathway 1 and pathway 2 in the HLM-based approach, and pathway 3 in both approaches were all obtained directly from reported studies using pooled HLMs (Buratti et al. [2003]; Sams et al. [2004]; Zhao et al. [2019]). Therefore, no extra calculations were required to define these parameters. The kinetic parameters for the ISEF calculation, pathway 1 and 2 in the Supersome™-based approach, and pathway 4 in both approaches (25 individuals) were all obtained by fitting the experimental data to the Michaelis–Menten model using GraphPad (GraphPad Prism 5.0 software, San Diego, CA, USA). It should be noted that the kinetic parameters for pathway 4 used in the two approaches were calculated as mean of the kinetic parameters (Vmax and Km) obtained using 25 individual HP samples (with correction for total protein concentration of each plasma sample).
# [2] = biological target: CYP3A4 (Homo sapiens, UniProt P08684); test: Supersome CYP3A4 kinetic incubations; assay type: in vitro ADME; design: purchased Corning (Amsterdam, The Netherlands); host or cells: baculovirus-transfected insect cells; conditions: for Scaled Vmax(app): CYP3A4 scaled to whole liver by Eq. 3; for Vmax (app) / Km: Supersome CYP3A4
# Chain of CYP3A4 (P08684 2-503 limits assumed): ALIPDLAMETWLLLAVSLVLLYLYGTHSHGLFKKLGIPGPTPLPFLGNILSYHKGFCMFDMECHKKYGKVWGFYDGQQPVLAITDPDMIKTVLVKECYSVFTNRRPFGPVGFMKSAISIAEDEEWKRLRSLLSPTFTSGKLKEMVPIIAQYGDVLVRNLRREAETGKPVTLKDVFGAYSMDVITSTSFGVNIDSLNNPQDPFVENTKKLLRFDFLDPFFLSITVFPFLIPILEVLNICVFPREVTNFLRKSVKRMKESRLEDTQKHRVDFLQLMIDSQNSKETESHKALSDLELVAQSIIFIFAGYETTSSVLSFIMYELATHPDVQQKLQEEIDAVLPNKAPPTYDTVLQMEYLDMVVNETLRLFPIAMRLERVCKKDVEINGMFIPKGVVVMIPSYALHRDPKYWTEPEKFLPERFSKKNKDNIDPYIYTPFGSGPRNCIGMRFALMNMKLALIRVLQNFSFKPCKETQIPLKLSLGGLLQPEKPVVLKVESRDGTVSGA
# Protocol: The final incubations were carried out in 50 mM Tris–HCl (pH 7.4) containing 5 mM MgCl2, 1 mM EDTA (as an A-esterase PON1 inhibitor) (Bizoń and Milnerowicz [2018]), 50 µM iso-OMPA (as a B-esterases inhibitor) (Lane et al. [2006]), Supersome™ isoform (at final concentration of 0.005 nmol CYP/ml for 1A2, 0.001 nmol CYP/ml for 2B6, 0.01 nmol CYP/ml for 2C19, and 0.01 nmol CYP/ml for 3A4) and CPF at different final concentrations (0.05, 0.1, 0.25, 0.5, 1, 5 and 10 µM for 1A2, 0.05, 0.1, 0.25, 0.5, 1, 5 10 and 25 µM for 2B6, 1, 2.5, 5, 10, 25 and 50 µM for 2C19, and 0.5, 1, 2.5, 5, 10, 25 and 50 µM for 3A4), which were added from 100 times concentrated stock solutions in ACN. After 1 min preincubation in a 37 °C water bath, 5 µl NADPH (final concentration 1 mM) was added to the incubation system. Control incubations were performed by replacing NADPH with the same amount of Tris–HCl (pH 7.4). The total volume of the incubation mixtures was 200 µl. The incubations lasted for 2 min at 37 °C and were terminated by addition of 50 µl ice cold ACN and subsquently put on ice. After that, samples were centrifuged at 16,000 g (4 ℃) for 5 min and supernatants of samples were separated into two equal portions for Ultra-Performance Liquid Chromatography-Photodiode Array (UPLC-PDA) and Liquid Chromatography Mass Spectrometry (LC–MS/MS) analysis, respectively.
# To normalize for differences in intrinsic CYP activity between Supersome™ and pooled HLMs and enable scaling of the activities to the in vivo situation, CYP-specific ISEF values need to be established. […] The incubation method was similar as used for the CPF kinetic incubation assay described above, except that certain incubation conditions were replaced by the conditions listed in Table 1. The samples obtained were analyzed by UPLC-PDA for acetaminophen, 4-hydroxymephenytoin, and 6β-hydroxytestosterone formation catalyzed by 1A2, 2C19 and 3A4, or LC–MS/MS for (±)-hydroxybupropion formation catalyzed by 2B6.
# as §1
# The in vivo Kmi values were assumed to be equal to the apparent Kmi(app) values (µM) obtained in the in vitro incubations, while the in vivo Vmaxi for each CYP isoform was derived from their corresponding apparent CYP isoform Vmaxi(app) (pmol/min/pmolCYP) using Eq. 3:3 Vmaxi=Vmaxiapp×CYPiabundance×ISEF×60×MPL×1000×VL/1,000,000,
# [3] = biological target: CYP2C19 (Homo sapiens, UniProt P33261); conditions: bioactivation of CPF, ref Foxenberg et al. [2007]; cited from earlier work
# Chain of CYP2C19 (P33261 whole entry): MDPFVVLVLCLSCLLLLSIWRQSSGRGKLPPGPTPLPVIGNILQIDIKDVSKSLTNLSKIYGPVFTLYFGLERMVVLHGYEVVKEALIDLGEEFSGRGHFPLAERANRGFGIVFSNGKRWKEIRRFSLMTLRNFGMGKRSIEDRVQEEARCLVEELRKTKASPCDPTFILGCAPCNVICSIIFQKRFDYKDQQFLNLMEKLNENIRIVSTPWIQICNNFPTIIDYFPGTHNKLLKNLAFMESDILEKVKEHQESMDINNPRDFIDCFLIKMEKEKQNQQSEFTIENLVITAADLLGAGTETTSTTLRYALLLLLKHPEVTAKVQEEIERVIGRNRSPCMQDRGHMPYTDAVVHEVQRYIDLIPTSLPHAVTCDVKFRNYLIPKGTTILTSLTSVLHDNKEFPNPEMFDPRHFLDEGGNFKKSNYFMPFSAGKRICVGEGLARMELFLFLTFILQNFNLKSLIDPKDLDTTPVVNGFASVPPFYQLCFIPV
smiles,measurement,setting,value
"CCOP(=S)(OCC)Oc1nc(Cl)c(Cl)cc1Cl [CPF, Chlorpyrifos]","CE of pooled HLM, biphasic kinetics",[1]; high and low affinity phase included,3600 L/h
same,"CE of pooled HLM, high affinity phase excluded",[1]; non-biphasic,41 L/h
same,Scaled Vmax(app),[2]; Pathway 1 (CPF to CPO),910.77 µmol/h
same,Vmax (app),[2]; Pathway 1 (CPF to CPO),17.78 pmol/min/pmolCYP
same,Scaled Vmax(app),[2]; Pathway 2 (CPF to TCPy),1222.21 µmol/h
same,Vmax (app),[2]; Pathway 2 (CPF to TCPy),23.86 pmol/min/pmolCYP
same,Km,"[2]; human, recombinant CYP3A4 Supersomes, pH 7.4, Km(app), Pathway 1 (bioactivation of CPF to CPO)",29.8 µM
same,Km,"[2]; human, recombinant CYP3A4 Supersomes, pH 7.4, Km(app), Pathway 2 (detoxification of CPF to TCPy)",18.1 µM
same,Km,"[2]; read-out: Km(app), Pathway 1 (bioactivation of CPF to CPO)",29.8 µM
same,Km,[3],1.23 µM

# Source: publication PMC9013686, “Inter-individual variation in chlorpyrifos toxicokinetics characterized by physiologically based kinetic (PBK) and Monte Carlo simulation comparing human liver microsome and Supersome™ cytochromes P450 (CYP)-specific kinetic data as model input” (Archives of Toxicology, 2022)
